The source of these data is patent publication US12084472B2 (Ardelyx, Inc., priority 2015, dated 2024).

In this experiment the target is T1, human TGR5 (Homo sapiens, UniProt Q8TDU6).
T1 construct: expressed in transfected cells; host or cells: HEK293
T1 sequence (Q8TDU6 1-330): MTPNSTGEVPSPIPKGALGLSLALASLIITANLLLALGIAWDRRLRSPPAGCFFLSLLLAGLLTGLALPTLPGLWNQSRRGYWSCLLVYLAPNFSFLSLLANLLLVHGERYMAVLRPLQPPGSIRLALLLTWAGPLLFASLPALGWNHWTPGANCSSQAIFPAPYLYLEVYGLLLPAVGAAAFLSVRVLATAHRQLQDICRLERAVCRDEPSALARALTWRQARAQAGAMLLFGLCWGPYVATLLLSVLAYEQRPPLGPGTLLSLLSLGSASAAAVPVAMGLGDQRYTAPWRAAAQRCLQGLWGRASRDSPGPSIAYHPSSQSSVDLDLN
In words: Cell-based TGR5 assay (cAMP generation, HTRF). The settings on record: HEK293 cells stably transfected with human TGR5; cAMP by HTRF; 30 minutes at 37° C.; read-out: pEC50 Human TGR5 (converted). The method, then:
A primary cell-based assay utilized HEK293 cells stably transfected with a gene encoding human TGR5. Cells were treated with candidate TGR5 activators and assessed for increased intercellular levels of cAMP.
TGR5-mediated cAMP generation was measured using a homogeneous time resolved fluorescence (HTRF) detection method (Cisbio). Test compounds were dissolved in DMSO to a final concentration of 10 mM. Serial 3-fold dilutions of the stock solution were made in DMSO, and these solutions were diluted 100-fold into Hanks Balanced Salt Solution supplemented with 10 mM HEPES pH 7.4, 0.003% Tween 20 and 0.5 mM isobutyl methylxanthine. Five microliters of diluted test compounds were added to wells of a black 384 well plate.
Cells grown overnight at 37° C./5% CO2 were harvested and resuspended in Hanks Balanced Salt Solution containing 10 mM HEPES to a concentration of […]. Five microliters (2500 cells) were dispensed into each well of the 384 well plate containing compound dilutions and incubated at 37° C. for 30 minutes. Each compound was tested in duplicate at 12 concentrations ranging from 0.05 nM to 10 μM.
Following incubation with test compounds, cAMP was detected through the successive addition of 5 μL each of cAMP labeled with the modified allophyocyanin dye d2 (cAMP-d2) and cryptate-labeled anti-cAMP in lysis buffer, and reading HTRF per the manufacturer's instructions.
A standard curve was used to convert the raw HTRF data into [cAMP]. The concentration of cAMP was plotted against log [test compound] and the resulting curves were fit to a 3-parameter logistical equation using GraphPad Prism to determine pEC50 (the negative log of the EC50) and the magnitude of the response.
A general note: Time-resolved FRET reads energy transfer from a long-lived donor to a nearby acceptor.
For `C[C@@H](CCCCN)c1ccc(Cl)c(CNC2(c3cnccc3-c3ccccc3OC3CC3)CC2)c1` (single isomer, unassigned) [Compound I-243], the EC50 is 126 to 1000 nM.
Turning to `CC(CCCCN)c1ccc(Cl)c(CNC2(c3cnccc3-c3ccccc3OC3CC3)CC2)c1` (single isomer, unassigned) [Compound I-244], the EC50 is 126 to 1000 nM.
With `C[C@H](CCCCN)c1ccc(Cl)c(COC2(c3cnccc3-c3ccccc3OC3CC3)CC2)c1` (single isomer, unassigned) [Compound I-245], the EC50 was 126 to 1000 nM.
As for `C[C@@H](CCCCN)c1ccc(Cl)c(COC2(c3cnccc3-c3ccccc3OC3CC3)CC2)c1` (single isomer, unassigned) [Compound I-246], the EC50 was 126 to 1000 nM.
With `C[C@H](CCCC(=O)O)c1ccc(Cl)c(CNC2(c3cnccc3-c3ccccc3OC3CC3)CC2)c1` (single isomer, unassigned) [Compound I-247], the EC50 was below 100 nM.
For `CC(CCCC(=O)O)c1ccc(Cl)c(CNC2(c3cnccc3-c3ccccc3OC3CC3)CC2)c1` (single isomer, unassigned) [Compound I-248], the EC50 is below 100 nM.
In the case of `C[C@@H](CCCN)c1ccc(Cl)c(CNC2(c3cnccc3-c3ccccc3OC3CC3)CC2)c1` (single isomer, unassigned) [Compound I-250], the EC50 is below 100 nM.
Turning to `C[C@H](CCCN)c1ccc(Cl)c(CNC2(c3cnccc3-c3ccccc3OC3CC3)CC2)c1` (single isomer, unassigned) [Compound I-251], the EC50 is below 100 nM.
Consider `Cc1ccc(C(C)CCCC(=O)O)cc1CNC1(c2cnccc2-c2ccccc2OC2CC2)CC1` (single isomer, unassigned) [Compound I-253], for which the EC50 is below 100 nM.
Regarding `C[C@@H](CCCCNC(=O)NC[C@H](O)[C@@H](O)[C@H](O)[C@H](O)CO)c1ccc(Cl)c(CNC2(c3cnccc3-c3ccccc3OC3CC3)CC2)c1` (single isomer, unassigned) [Compound I-255], the EC50 is below 100 nM.
In the case of `C[C@H](CCCCNC(=O)NC[C@H](O)[C@@H](O)[C@H](O)[C@H](O)CO)c1ccc(Cl)c(CNC2(c3cnccc3-c3ccccc3OC3CC3)CC2)c1` (single isomer, unassigned) [Compound I-256], the EC50 is below 100 nM.
For the molecule `C[C@H](CCCCNC(=O)N[C@@H](CO)[C@@H](O)[C@H](O)[C@H](O)CO)c1ccc(Cl)c(COC2(c3cnccc3-c3ccccc3OC3CC3)CC2)c1` (single isomer, unassigned) [Compound I-264], the EC50 was below 100 nM.
Regarding `C[C@H](CCCCNC(=O)NC[C@H](O)[C@@H](O)[C@H](O)[C@H](O)CO)c1ccc(Cl)c(COC2(c3cnccc3-c3ccccc3OC3CC3)CC2)c1` (single isomer, unassigned) [Compound I-273], the EC50 is below 100 nM.
For `C[C@@H](CCCCNC(=O)NC[C@H](O)[C@@H](O)[C@H](O)[C@H](O)CO)c1ccc(Cl)c(COC2(c3cnccc3-c3ccccc3OC3CC3)CC2)c1` (single isomer, unassigned) [Compound I-274], the EC50 is below 100 nM.
`C[C@@H](CCCC(=O)NC[C@H](O)[C@@H](O)[C@H](O)[C@H](O)CO)c1ccc(Cl)c(CNC2(c3cnccc3-c3ccccc3OC3CC3)CC2)c1` (single isomer, unassigned) [Compound I-314]: the EC50 was below 100 nM.
The figure for `C[C@H](CCCC(=O)NC[C@H](O)[C@@H](O)[C@H](O)[C@H](O)CO)c1ccc(Cl)c(CNC2(c3cnccc3-c3ccccc3OC3CC3)CC2)c1` (single isomer, unassigned) [Compound I-315] is below 100 nM; for `C[C@@H](CCCC(=O)N(C)C[C@H](O)[C@@H](O)[C@H](O)[C@H](O)CO)c1ccc(Cl)c(CNC2(c3cnccc3-c3ccccc3OC3CC3)CC2)c1` (single isomer, unassigned) [Compound I-325] it is below 100 nM.
For `C[C@H](CCCC(=O)N(C)C[C@H](O)[C@@H](O)[C@H](O)[C@H](O)CO)c1ccc(Cl)c(CNC2(c3cnccc3-c3ccccc3OC3CC3)CC2)c1` (single isomer, unassigned) [Compound I-326], the EC50 was below 100 nM.
For the molecule `C[C@@H](CCCCC(=O)N(C)C[C@H](O)[C@@H](O)[C@H](O)[C@H](O)CO)c1ccc(Cl)c(CNC2(c3cnccc3-c3ccccc3OC3CC3)CC2)c1` (single isomer, unassigned) [Compound I-328], the EC50 is below 100 nM.
In the case of `C[C@H](CCCCC(=O)N(C)C[C@H](O)[C@@H](O)[C@H](O)[C@H](O)CO)c1ccc(Cl)c(CNC2(c3cnccc3-c3ccccc3OC3CC3)CC2)c1` (single isomer, unassigned) [Compound I-329], the EC50 is below 100 nM.
`Cc1ccc([C@@H](C)CCCC(=O)N(C)C[C@H](O)[C@@H](O)[C@H](O)[C@H](O)CO)cc1CNC1(c2cnccc2-c2ccccc2OC2CC2)CC1` (single isomer, unassigned) [Compound I-350]: the EC50 was below 100 nM.
Regarding `Cc1ccc([C@H](C)CCCC(=O)N(C)C[C@H](O)[C@@H](O)[C@H](O)[C@H](O)CO)cc1CNC1(c2cnccc2-c2ccccc2OC2CC2)CC1` (single isomer, unassigned) [Compound I-351], the EC50 is below 100 nM.
Take `Cc1ccc([C@@H](C)CCCC(=O)N(CCS(C)(=O)=O)C[C@H](O)[C@@H](O)[C@H](O)[C@H](O)CO)cc1CNC1(c2cnccc2-c2ccccc2OC2CC2)CC1` (single isomer, unassigned) [Compound I-367]: the EC50 was below 100 nM.
Consider `Cc1ccc([C@H](C)CCCC(=O)N(CCS(C)(=O)=O)C[C@H](O)[C@@H](O)[C@H](O)[C@H](O)CO)cc1CNC1(c2cnccc2-c2ccccc2OC2CC2)CC1` (single isomer, unassigned) [Compound I-368], for which the EC50 is below 100 nM.
The figure for `Cc1cc(CNC2(c3cnccc3-c3ccccc3OC3CC3)CC2)c(C)cc1CCCCNC(=O)NC[C@H](O)[C@@H](O)[C@H](O)[C@H](O)CO` (stereo in doubt) [Compound I-147, 1-(4-{4-[({1-[4-(2-cyclopropoxyphenyl)pyridin-3-yl]cyclopropyl}amino)methyl]-2,5-dimethylphenyl}butyl)-3-[(2S,3R,4R,5R)-2,3,4,5,6-pentahydroxyhexyl]urea] is 126 to 1000 nM; for `Cc1cc(COC2(c3cnccc3-c3ccccc3OC3CC3)CC2)c(C)cc1CCCCNC(=O)NC[C@H](O)[C@@H](O)[C@H](O)[C@H](O)CO` (stereo in doubt) [Compound I-150, 1-{4-[4-({1-[4-(2-cyclopropoxyphenyl)pyridin-3-yl]cyclopropoxy}methyl)-2,5-dimethylphenyl]butyl}-3-[(2S,3R,4R,5R)-2,3,4,5,6-pentahydroxyhexyl]urea] it is below 100 nM; for `Cc1cc(CNC2(c3cnccc3-c3ccccc3OC3CC3)CC2)c(Cl)cc1CCCCNC(=O)NC[C@H](O)[C@@H](O)[C@H](O)[C@H](O)CO` (stereo in doubt) [Compound I-151, 1-(4-{5-chloro-4-[({1-[4-(2-cyclopropoxyphenyl)pyridin-3-yl]cyclopropyl}amino)methyl]-2-methylphenyl}butyl)-3-[(2S,3R,4R,5R)-2,3,4,5,6-pentahydroxyhexyl]urea] it is 126 to 1000 nM.
`O=C(NC[C@H](O)[C@@H](O)[C@H](O)[C@H](O)CO)NC1CCN(C(=O)CCCCc2cc(Cl)c(COC3(c4cnccc4-c4ccccc4OC4CC4)CC3)cc2Cl)CC1` (stereo in doubt) [Compound I-158, 1-(1-{5-[2,5-dichloro-4-({1-[4-(2-cyclopropoxyphenyl)pyridin-3-yl]cyclopropoxy}methyl)phenyl]pentanoyl}piperidin-4-yl)-3-[(2S,3R,4R,5R)-2,3,4,5,6-pentahydroxyhexyl]urea]: the EC50 is below 100 nM.
With `CN(C[C@H](O)[C@@H](O)[C@H](O)[C@H](O)CO)C(=O)NC1CCN(C(=O)CCCCc2cc(Cl)c(COC3(c4cnccc4-c4ccccc4OC4CC4)CC3)cc2Cl)CC1` (stereo in doubt) [Compound I-159, 1-(1-{5-[2,5-dichloro-4-({1-[4-(2-cyclopropoxyphenyl)pyridin-3-yl]cyclopropoxy}methyl)phenyl]pentanoyl}piperidin-4-yl)-3-methyl-3-[(2S,3R,4R,5R)-2,3,4,5,6-pentahydroxyhexyl]urea], the EC50 is below 100 nM.
On to `O=C(CCCCc1cc(Cl)c(COC2(c3cnccc3-c3ccccc3OC3CC3)CC2)cc1Cl)N[C@@H](CN1CCOCC1)[C@@H](O)[C@H](O)[C@H](O)CO` (stereo in doubt) [Compound I-160, 5-[2,5-dichloro-4-({1-[4-(2-cyclopropoxyphenyl)pyridin-3-yl]cyclopropoxy}methyl)phenyl]-N-[(2S,3R,4S,5R)-3,4,5,6-tetrahydroxy-1-(morpholin-4-yl)hexan-2-yl]pentanamide], for which the EC50 is below 100 nM.
